Columns and labels:
Rattus norvegicus [1] = experiment: Dose normalized Cmax inSprague-Dawley rat at 6 mg/kg, po; assay type: ADME, organism-based, Sprague-Dawley; parameters: dose 6 mg/kg, route oral; settings: in vivo
Rattus norvegicus [2] = experiment: Dose normalized AUC (infinity) in Sprague-Dawley rat at 6 mg/kg, po; assay type: ADME, organism-based; parameters: dose 6 mg/kg, route oral; settings: in vivo
Rattus norvegicus [3] = experiment: Reduction in mean arterial pressure in human renin and human angiotensinogen double transgenic rat at 1 mg/kg, po; assay type: functional, Artery
[4] = Half life in Sprague-Dawley rat at 2 mg/kg, iv; assay type: ADME, organism-based; parameters: dose 2 mg/kg, route intravenous; settings: in vivo
Rattus norvegicus [5] = experiment: Reduction in mean arterial pressure in human renin and human angiotensinogen double transgenic rat at 30 mg/kg, po; assay type: functional, Artery
Rattus norvegicus [6] = experiment: Reduction in mean arterial pressure in human renin and human angiotensinogen double transgenic rat at 10 mg/kg, po; assay type: functional, Artery
[7] = Volume of distribution at steady state in Sprague-Dawley rat at 2 mg/kg, iv; assay type: ADME, organism-based; parameters: dose 2 mg/kg, route intravenous; settings: in vivo, read-out: Vdss
[8] = Clearance in Sprague-Dawley rat at 2 mg/kg, iv; assay type: ADME, organism-based; parameters: dose 2 mg/kg, route intravenous; settings: in vivo
Rattus norvegicus [9] = experiment: Reduction in mean arterial pressure in human renin and human angiotensinogen double transgenic rat at 100 mg/kg, po; assay type: functional, Artery
[10] = Oral bioavailability in Sprague-Dawley rat at 6 mg/kg; assay type: ADME, organism-based; settings: in vivo
Rattus norvegicus [11] = experiment: Reduction in mean arterial pressure in human renin and human angiotensinogen double transgenic rat at 3 mg/kg, po; assay type: functional, Artery
Pepsin A = Pepsin A (Homo sapiens, UniProt P0DJD9); experiment: Inhibition of human recombinant pepsinogen A expressed in Escherichia coli using fluorescence-quenched Dabcyl-E-R-Nle-F-L-S-F-P-EDANS substrate by fluorimetric assay
Gastricsin = target: T1, Gastricsin (Homo sapiens, UniProt P20142); experiment: Inhibition of human recombinant pepsinogen C expressed in Escherichia coli using fluorescence-quenched Dabcyl-E-R-Nle-F-L-S-F-P-EDANS substrate by fluorimetric assay
T1 sequence (P20142 whole entry): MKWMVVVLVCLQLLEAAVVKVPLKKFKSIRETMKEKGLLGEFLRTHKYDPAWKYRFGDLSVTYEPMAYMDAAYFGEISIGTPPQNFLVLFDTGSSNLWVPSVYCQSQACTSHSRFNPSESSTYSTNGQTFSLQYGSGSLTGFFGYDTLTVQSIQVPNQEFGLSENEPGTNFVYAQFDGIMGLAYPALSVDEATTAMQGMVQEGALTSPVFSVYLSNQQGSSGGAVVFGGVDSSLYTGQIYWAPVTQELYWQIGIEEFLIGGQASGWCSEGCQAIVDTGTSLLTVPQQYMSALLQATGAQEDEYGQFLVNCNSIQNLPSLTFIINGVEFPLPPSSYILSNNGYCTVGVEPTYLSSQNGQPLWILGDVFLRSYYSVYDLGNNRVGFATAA

[12] = target: Sodium channel protein type 2 subunit alpha (Homo sapiens, UniProt Q99250); experiment: Inhibition of Nav1.2 (unknown origin) by patch clamp assay
Cytochrome P450 3A4 = Cytochrome P450 3A4 (Homo sapiens, UniProt P08684); experiment: Inhibition of CYP3A4 (unknown origin); assay type: ADME
Salmonella typhimurium [13] = experiment: Mutagenicity in Salmonella typhimurium in absence of liver S9 fraction by Ames test; assay type: toxicity, organism-based; settings: salmonella enterica subsp. enterica serovar typhimurium
Cathepsin D = Cathepsin D (Homo sapiens, UniProt P07339); experiment: Inhibition of human recombinant procathepsin D expressed in SF9 cells using fluorescence-quenched Ac-E-D(EDANS)-KPILFFRLG-K(Dabcyl)-E-Amid substrate by fluorimetric assay
Cathepsin E = target: T2, Cathepsin E (Homo sapiens, UniProt P14091); experiment: Inhibition of human recombinant human procathepsin E expressed in Escherichia coli using fluorescence-quenched Ac-E-D(EDANS)-KPILFFRLG-K(Dabcyl)-E-Amid substrate by fluorimetric assay
T2 sequence (P14091 whole entry): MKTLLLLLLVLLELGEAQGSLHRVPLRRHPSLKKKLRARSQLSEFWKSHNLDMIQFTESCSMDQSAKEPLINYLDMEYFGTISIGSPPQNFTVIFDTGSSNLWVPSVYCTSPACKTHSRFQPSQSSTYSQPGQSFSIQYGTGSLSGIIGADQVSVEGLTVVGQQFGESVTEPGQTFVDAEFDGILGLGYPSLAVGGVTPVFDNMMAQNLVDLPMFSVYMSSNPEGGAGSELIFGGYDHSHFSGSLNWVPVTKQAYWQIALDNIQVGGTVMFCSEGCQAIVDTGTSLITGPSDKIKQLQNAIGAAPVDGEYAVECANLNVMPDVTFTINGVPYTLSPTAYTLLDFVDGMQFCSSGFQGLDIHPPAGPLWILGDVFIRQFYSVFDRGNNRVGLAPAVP

[14] = target: Sodium channel protein type 5 subunit alpha (Homo sapiens, UniProt Q14524); experiment: Inhibition of Nav1.5 (unknown origin) by patch clamp assay
Salmonella typhimurium [15] = experiment: Mutagenicity in Salmonella typhimurium in presence of liver S9 fraction by Ames test; assay type: toxicity, organism-based; settings: salmonella enterica subsp. enterica serovar typhimurium
[16] = Lipophilicity, logD of the compound at pH 6.8; assay type: physicochemical; settings: buffer
Beta-secretase 2 = target: T3, Beta-secretase 2 (Homo sapiens, UniProt Q9Y5Z0); experiment: Inhibition of human recombinant BACE2 expressed in SF9 cells using fluorescence-quenched RE(EDANS)-EVNLDAEF-K(DABSYL)-R substrate by fluorimetric assay
T3 sequence (Q9Y5Z0 whole entry): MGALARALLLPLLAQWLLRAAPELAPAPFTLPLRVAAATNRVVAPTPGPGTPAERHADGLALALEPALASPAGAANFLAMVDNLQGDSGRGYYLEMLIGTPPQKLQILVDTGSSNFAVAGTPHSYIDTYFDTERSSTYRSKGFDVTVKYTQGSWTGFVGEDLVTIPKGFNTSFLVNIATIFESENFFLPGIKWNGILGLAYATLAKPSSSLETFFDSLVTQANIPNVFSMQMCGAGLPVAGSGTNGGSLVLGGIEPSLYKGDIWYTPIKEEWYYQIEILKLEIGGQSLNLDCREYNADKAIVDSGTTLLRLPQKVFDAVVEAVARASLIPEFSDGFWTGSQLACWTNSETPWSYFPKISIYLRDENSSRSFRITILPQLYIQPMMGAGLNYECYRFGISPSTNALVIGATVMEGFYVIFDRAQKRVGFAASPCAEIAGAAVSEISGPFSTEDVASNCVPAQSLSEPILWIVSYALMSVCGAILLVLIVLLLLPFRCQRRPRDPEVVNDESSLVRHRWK

Beta-secretase 1 = Beta-secretase 1 (Homo sapiens, UniProt P56817); experiment: Inhibition of human recombinant BACE1 expressed in SF9 cells using fluorescence-quenched RE(EDANS)-EVNLDAEF-K(DABSYL)-R substrate by fluorimetric assay
Cytochrome P450 2C9 = Cytochrome P450 2C9 (Homo sapiens, UniProt P11712); experiment: Inhibition of CYP2C9 (unknown origin); assay type: ADME
[17] = Chemical stability at 80 degC; assay type: physicochemical
Cytochrome P450 2D6 = Cytochrome P450 2D6 (Homo sapiens, UniProt P10635); experiment: Inhibition of CYP2D6 (unknown origin); assay type: ADME
[18] = Solubility in water at pH 1 to 9; assay type: physicochemical

Sodium channel protein type 2 subunit alpha, sequence (Q99250 whole entry): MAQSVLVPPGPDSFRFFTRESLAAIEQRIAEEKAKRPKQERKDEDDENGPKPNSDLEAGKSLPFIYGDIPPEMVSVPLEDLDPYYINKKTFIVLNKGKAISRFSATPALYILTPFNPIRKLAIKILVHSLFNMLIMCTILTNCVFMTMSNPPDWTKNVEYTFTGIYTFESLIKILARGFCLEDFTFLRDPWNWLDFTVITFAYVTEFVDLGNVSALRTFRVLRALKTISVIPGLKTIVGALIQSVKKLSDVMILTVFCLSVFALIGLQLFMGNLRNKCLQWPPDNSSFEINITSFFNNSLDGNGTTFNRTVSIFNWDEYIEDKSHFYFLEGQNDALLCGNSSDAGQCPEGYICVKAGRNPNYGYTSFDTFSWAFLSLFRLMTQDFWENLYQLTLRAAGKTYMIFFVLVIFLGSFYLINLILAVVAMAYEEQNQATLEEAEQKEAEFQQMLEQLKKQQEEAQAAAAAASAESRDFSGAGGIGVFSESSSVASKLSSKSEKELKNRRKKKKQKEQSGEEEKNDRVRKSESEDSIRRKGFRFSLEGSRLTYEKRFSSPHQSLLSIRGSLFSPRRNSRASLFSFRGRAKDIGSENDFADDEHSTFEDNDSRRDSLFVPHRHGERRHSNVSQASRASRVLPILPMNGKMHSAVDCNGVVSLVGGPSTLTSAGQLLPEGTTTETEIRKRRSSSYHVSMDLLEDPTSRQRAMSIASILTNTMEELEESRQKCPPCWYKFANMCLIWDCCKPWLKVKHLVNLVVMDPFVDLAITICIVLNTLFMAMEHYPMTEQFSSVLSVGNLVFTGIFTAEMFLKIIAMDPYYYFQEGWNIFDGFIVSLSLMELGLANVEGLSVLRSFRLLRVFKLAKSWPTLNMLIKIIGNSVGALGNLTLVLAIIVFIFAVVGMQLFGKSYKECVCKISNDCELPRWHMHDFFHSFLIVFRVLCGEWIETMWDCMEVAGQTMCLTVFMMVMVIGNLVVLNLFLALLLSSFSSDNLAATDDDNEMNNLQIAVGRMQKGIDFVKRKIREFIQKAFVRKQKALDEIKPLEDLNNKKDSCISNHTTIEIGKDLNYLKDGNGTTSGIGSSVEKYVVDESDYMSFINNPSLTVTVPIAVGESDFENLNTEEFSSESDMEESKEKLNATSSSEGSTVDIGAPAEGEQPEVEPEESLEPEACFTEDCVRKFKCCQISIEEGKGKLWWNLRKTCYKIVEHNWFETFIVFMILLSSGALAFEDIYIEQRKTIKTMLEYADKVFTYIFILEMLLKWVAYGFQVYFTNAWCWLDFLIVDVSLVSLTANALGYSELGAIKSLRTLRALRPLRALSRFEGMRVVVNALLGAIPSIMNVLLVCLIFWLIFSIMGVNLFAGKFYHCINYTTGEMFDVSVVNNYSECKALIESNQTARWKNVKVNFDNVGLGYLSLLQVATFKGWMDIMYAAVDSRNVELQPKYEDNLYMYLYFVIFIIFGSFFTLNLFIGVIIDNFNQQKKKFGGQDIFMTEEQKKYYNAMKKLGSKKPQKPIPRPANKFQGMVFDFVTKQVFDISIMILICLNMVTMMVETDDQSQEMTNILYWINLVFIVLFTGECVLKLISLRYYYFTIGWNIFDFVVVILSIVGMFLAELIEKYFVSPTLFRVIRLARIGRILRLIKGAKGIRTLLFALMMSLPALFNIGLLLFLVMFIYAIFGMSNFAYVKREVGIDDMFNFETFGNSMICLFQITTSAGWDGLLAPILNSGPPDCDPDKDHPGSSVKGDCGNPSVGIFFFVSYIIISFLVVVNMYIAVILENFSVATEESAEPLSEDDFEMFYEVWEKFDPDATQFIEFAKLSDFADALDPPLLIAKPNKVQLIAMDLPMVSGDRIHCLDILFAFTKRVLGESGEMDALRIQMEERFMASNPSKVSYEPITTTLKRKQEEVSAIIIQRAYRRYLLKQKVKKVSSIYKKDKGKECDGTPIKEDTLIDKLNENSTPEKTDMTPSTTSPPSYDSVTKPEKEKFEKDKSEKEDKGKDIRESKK
Sodium channel protein type 5 subunit alpha, sequence (Q14524 whole entry): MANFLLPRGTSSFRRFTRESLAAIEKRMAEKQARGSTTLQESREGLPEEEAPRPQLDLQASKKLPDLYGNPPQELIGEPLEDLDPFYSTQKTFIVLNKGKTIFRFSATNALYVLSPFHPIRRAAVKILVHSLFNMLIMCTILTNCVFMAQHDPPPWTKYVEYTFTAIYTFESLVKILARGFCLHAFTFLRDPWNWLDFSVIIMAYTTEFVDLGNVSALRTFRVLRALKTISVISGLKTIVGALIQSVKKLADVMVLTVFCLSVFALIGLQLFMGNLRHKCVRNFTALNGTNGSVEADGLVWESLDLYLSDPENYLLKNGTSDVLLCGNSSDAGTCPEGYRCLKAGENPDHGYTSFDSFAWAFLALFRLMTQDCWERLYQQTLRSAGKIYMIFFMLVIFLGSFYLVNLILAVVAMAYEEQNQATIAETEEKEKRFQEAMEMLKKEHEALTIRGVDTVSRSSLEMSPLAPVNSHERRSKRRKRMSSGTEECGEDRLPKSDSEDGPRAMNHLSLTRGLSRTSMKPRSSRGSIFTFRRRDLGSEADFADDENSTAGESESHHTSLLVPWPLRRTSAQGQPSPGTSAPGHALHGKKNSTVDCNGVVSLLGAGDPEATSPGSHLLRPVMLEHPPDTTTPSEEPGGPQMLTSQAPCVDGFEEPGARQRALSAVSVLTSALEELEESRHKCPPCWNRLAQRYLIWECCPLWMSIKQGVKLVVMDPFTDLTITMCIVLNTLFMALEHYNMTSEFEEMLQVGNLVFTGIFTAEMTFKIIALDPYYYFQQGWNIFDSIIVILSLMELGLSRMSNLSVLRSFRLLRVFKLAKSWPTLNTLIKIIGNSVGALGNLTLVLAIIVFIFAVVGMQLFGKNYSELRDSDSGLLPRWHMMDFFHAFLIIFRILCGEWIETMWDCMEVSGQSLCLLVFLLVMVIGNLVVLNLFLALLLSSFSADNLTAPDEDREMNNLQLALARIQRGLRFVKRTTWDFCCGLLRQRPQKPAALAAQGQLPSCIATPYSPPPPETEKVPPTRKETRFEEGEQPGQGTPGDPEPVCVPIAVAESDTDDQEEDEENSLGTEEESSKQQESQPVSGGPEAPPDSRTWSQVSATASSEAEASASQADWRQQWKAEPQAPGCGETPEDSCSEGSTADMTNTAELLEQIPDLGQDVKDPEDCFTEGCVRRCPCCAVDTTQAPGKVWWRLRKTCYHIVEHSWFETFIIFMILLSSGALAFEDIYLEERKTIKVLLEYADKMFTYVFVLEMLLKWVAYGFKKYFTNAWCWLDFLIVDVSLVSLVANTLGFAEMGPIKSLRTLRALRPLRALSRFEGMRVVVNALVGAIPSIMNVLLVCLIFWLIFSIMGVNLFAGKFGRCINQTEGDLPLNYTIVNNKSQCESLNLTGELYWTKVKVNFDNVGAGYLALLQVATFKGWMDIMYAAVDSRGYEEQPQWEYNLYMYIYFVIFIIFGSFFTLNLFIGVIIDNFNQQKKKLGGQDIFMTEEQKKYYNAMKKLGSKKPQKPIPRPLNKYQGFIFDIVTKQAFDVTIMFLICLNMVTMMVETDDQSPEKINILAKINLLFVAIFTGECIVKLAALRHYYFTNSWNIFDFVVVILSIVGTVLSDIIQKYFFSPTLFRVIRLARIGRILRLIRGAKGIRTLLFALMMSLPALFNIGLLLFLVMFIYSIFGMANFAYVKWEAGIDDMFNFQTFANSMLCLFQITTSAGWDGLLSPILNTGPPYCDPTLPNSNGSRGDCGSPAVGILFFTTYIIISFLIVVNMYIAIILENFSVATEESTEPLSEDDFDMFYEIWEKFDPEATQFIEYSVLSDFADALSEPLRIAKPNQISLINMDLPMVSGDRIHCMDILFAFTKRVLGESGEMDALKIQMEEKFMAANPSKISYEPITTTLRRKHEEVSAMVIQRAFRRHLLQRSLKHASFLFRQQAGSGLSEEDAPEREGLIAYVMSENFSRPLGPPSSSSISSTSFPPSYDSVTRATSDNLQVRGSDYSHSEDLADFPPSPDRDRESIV
Pepsin A, sequence (P0DJD9 whole entry): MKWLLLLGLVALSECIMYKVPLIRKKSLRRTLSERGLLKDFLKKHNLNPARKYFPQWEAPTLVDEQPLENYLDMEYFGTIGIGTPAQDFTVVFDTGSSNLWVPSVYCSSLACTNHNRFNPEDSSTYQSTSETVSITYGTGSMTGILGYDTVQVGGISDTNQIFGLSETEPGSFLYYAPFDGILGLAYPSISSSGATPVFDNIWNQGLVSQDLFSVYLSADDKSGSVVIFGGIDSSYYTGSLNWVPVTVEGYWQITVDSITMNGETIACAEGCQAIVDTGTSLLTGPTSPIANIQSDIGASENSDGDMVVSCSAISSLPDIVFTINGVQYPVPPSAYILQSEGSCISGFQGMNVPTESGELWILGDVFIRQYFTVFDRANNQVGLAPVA
Beta-secretase 1, sequence (P56817 whole entry): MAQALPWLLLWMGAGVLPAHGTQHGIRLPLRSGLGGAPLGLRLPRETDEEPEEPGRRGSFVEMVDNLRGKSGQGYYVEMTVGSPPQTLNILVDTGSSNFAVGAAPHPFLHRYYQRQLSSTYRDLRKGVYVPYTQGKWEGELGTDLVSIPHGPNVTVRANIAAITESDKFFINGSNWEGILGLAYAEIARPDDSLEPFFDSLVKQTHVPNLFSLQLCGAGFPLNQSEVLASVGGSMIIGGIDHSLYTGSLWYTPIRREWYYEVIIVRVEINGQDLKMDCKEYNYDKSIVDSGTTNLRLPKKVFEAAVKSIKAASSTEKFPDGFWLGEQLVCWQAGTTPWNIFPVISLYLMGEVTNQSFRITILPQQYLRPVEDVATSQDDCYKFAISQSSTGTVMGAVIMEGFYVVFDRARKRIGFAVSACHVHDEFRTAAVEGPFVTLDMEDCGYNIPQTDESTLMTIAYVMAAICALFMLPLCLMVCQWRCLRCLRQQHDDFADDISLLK

With `CCOC[C@@H](CC(C)C)NC(=O)[C@@H]1CNC[C@H](C(=O)N(c2ccc(C(C)C)cn2)C2CC2)[C@@H]1O.O=C(O)CCC(=O)O` the Cmax/dose (Rattus norvegicus [1]) was 136 nM/mg/kg, the AUC/dose (Rattus norvegicus [2]) was 552 nM·h/mg/kg and the Activity (Rattus norvegicus [3]) was 33 mmHg. The half-life [4] was 6.8 h, the Activity (Rattus norvegicus [5]) was 63 mmHg and the Activity (Rattus norvegicus [6]) was 52 mmHg. For the same compound, the Vd [7] was 4 L/kg, the clearance [8] was 2.4 L/h/kg and the Activity (Rattus norvegicus [9]) was 66 mmHg. The bioavailability [10] was 61% and the Activity (Rattus norvegicus [11]) was 42 mmHg.

With `CCOC[C@@H](CC(C)C)NC(=O)[C@@H]1CNC[C@H](C(=O)N(c2ccc(C(C)C)cn2)C2CC2)[C@@H]1O` the IC50 (Pepsin A) was over 30 µM, the IC50 (Gastricsin) was over 30 µM and the IC50 [12] was over 30 µM. For the same compound, the IC50 (Cytochrome P450 3A4) was over 30 µM, the Activity (Salmonella typhimurium [13]) was “Non-toxic” and the IC50 (Cathepsin D) was over 30 µM. For the same compound, the IC50 (Cathepsin E) was over 30 µM, the IC50 [14] was over 30 µM and the Activity (Salmonella typhimurium [15]) was “Non-toxic”. It also gave a logD [16] of 0.93, an IC50 (Beta-secretase 2) of over 30 µM and an IC50 (Beta-secretase 1) of over 30 µM. It also gave an IC50 (Cytochrome P450 2C9) of over 30 µM, a Stability [17] of 3 days and an IC50 (Cytochrome P450 2D6) of over 30 µM. The solubility [18] was over 10 mg/mL.

Source: ChEMBL document CHEMBL3352242, “Structure-based design of substituted piperidines as a new class of highly efficacious oral direct Renin inhibitors” (ACS Med Chem Lett, 2014)
